From patent US20230310435A1, “HOST DEFENSE PROTEIN (HDP) MIMETICS FOR PROPHYLAXIS AND/OR TREATMENT OF INFLAMMATORY DISEASES OF THE GASTROINTESTINAL TRACT” (priority 2015, published 2023)
Structures can show the parent of a compound that is named as a salt.

How the values were obtained:
[1] = system: LPS-induced MCP-1 release, NR8383 cells; test: LPS-induced MCP-1 release in NR8383 rat macrophages (ELISA); format: cell-based
Description: Method for FIG. 7. […] After 8 hours, supernatants were collected for MCP-1 measurement by ELISA. MCP-1 was measured using an immunoassay kit according to manufacturer's instructions (Thermo Scientific, Rockford. IL).
Method for FIG. 8. MCP-1 assays were performed using PMX-60056. Rat macrophages (NR8383) were pretreated with […] with concentrations shown for 45 minutes, followed by 1 μg/ml LPS treatment from E. coli (Sigma, St. Louis, MO) for 8 hours. After 8 hours, supernatants were collected for MCP-1 measurement by ELISA. MCP-1 was measured using an immunoassay kit according to manufacturer's instructions (Thermo Scientific, Rockford, IL).
The MCP-1 inhibition assay was performed according to the Method described for FIG. 7.
The MCP-1 inhibition assay was performed according to the Method described for FIG. 8.
(§1) PDE4 and PDE3 inhibition results in subsequent down-regulation of pro-inflammatory cytokines/chemokines and its regulators, and experiments were conducted to confirm such down-regulation by brilacidin in ex vivo cell-based assays. In these assays, cells were exposed to brilacidin 45 minutes before an 8-hour lipopolysaccharide (LPS) stimulation in the presence of brilacidin; cytokine/enzyme concentrations were determined by ELISA using a standard immunoassay kit.

in vivo = test: in vivo; parameters: species or system male Balb/c mice; details: mouse, 10 mg/kg
Description: Method for FIG. 12. […] The small intestine with content of each animal for were harvested and placed per animal per tissue into a tube. The small intestine with content samples were snap frozen in dry ice and then stored at −80° C. until bioanalysis. All the samples were labeled with detailed information such as study number, animal number, matrix, and time points of collection and date of collection. In addition, the extra animals obtained for the study, but not placed on study were used for collection of small intestine with content. The resulting small intestine with content samples were then applied to the development of the bioanalytical method and sample bioanalysis in this study. Bioanalytical analysis was performed on samples by LC-MS/MS.
For analyzing the contents of the small intestine, small intestine samples were homogenized by adding saline (1 g small intestine: 5 mL saline). Small intestine homogenates (50 μL) were transferred to tubes and 250 μL internal standard (IS) working solution (50 ng/mL Carvedilol) was added to each sample. After vortexing for 1 minute and centrifuging for 5 minutes at 15,000 rpm, 100 μL aliquots of supernatant were transferred to glass autosampler vials.
Method for FIG. 13. […] The ratios versus time are shown.
At 1 hour, the concentration in the small intestine peaked at 38,941±4703 ng/gram of tissue (FIG. 12).

[2] = system: LPS-induced MMP-9 release, NR8383 cells; test: LPS-induced MMP-9 release in NR8383 rat macrophages (ELISA); format: cell-based
Description: Method for FIG. 9. […] After 8 hours, supernatants were collected for MMP9 measurement by ELISA using immunoassay kit (R&D Systems, Minneapolis, MN) according to manufacturer's instructions.
The MMP-9 inhibition assay was performed according to the Method described for FIG. 9.
as §1

DSS-induced colitis = test: Dextran sulfate sodium (DSS)-induced acute colitis model; format: in vivo, male C57BL/6 mice
Description: The efficacy of brilacidin administered was investigated in a murine model of chemically-induced acute colitis using dextran sulfate sodium (DSS). This was a different in vivo model of IBD to the testing performed in Examples 16 and 17 (where mucosal injury was induced by using acetic acid). DSS-induced colitis in mice is characterized by weight loss, bloody diarrhea, intestinal ulcerations and infiltrations with granulocytes. In mice, DSS was administered from Day 0 to Day 11, as a 5% (w/v) DSS solution in the drinking water of male C57BL/6 mice (Kim J J, et al., J. Vis. Exp., 2012, 60, 3678), to induce severe murine colitis. On Days 7-11, test compound brilacidin (400 mg/kg) or positive control 5-ASA (50 mg/kg) or water (negative control) were administered as a solution, per rectum. On Days 6, 10 and 11, rectal bleeding was assessed using a Hemoccult® kit and stool consistency was visually assessed; severity of symptoms were scored on a scale of 0 (normal) to 4 (severe). Level of pro-inflammatory cytokines interleukin (IL)-6 and IL-1β in distal colon tissue were determined from excised colons using conventional ELISA methods.

[3] = system: LPS-induced IL-6 release, NR8383 cells; test: LPS-induced IL-6 release in NR8383 rat macrophages (ELISA); format: cell-based; details: Macrophage
Description: Method for FIG. 10. […] After 8 hours, supernatants were collected for IL-6 measurement by ELISA using immunoassay kit (R&D Systems, Minneapolis, MN) according to manufacturer's instructions.
The inhibition of IL-6 induction assay was performed according to the Method described for FIG. 10.
as §1

[4] = by Day 11, brilacidin 400 mg/kg per rectum Days 7-11, p<0.001
[5] = end of study, brilacidin 400 mg/kg or 5-ASA 50 mg/kg per rectum Days 7-11

N=C(N)NCCCCC(=O)Nc1cc(C(F)(F)F)cc(NC(=O)c2cc(C(=O)Nc3cc(C(F)(F)F)cc(NC(=O)CCCCNC(=N)N)c3O[C@@H]3CCNC3)ncn2)c1O[C@@H]1CCNC1 [PMX-30063, N^4,N^6-bis(2-((R)-pyrrolidin-3-yloxy)-3-((4-carbamoylbutyl)guanidine)-5-(trifluoromethyl)phenyl)pyrimidine-4,6-dicarboxamide tetrahydrochloride salt]
effect on MCP-1 induction after LPS stimulation (in words) ([1]; NR8383, 45 min pretreatment, LPS 1 μg/ml 8 h): strong inhibition | IC50 ([1]; Rattus norvegicus, Macrophage, NR8383 cells, ELISA, 45 min pretreatment, 8-hour LPS, read-out: IC50, inhibition of LPS-induced MCP-1 release): 0.75 µM | decrease in MCP-1 levels ([1]; at 0.5 μM, NR8383, LPS 1 μg/ml 8 h): ≥ 25% | total exposure (AUC) in the blood upon oral administration (in vivo; male, Balb/c): less than 0.5% | Cmax (in vivo; male, Balb/c, po): 38900 ng/g | Kp (in vivo; male, Balb/c, po): 2240 to 4320 | Tmax (in vivo; male, Balb/c, po): 60 min | half-life (in vivo; male, Balb/c, po): 47.4 min | AUC(0-t) (in vivo; po): 86089 ng·h/g | AUC(0-∞) (in vivo; po): 89525 ng·h/g | MRT(0-∞) (in vivo; po): 1.52 H | IC50 ([2]; Rattus norvegicus, Macrophage, NR8383 cells, ELISA, 45 min pretreatment, 8-hour LPS, read-out: IC50, inhibition of LPS-induced MMP-9 release): 2.3 µM | decrease in MMP-9 levels ([2]; at 12.5 μM, NR8383, LPS 1 μg/ml 8 h): 50% | rectal bleeding score compared to DSS-treated control (in words) (DSS-induced colitis; [4]): significant decrease | stool consistency compared to DSS-treated control (in words) (DSS-induced colitis; [4]): significantly more firm | mean reduction in IL-1β in distal colon tissue compared to DSS-treated control group (DSS-induced colitis; [5]): 27% | mean reduction in IL-6 in distal colon tissue compared to DSS-treated control group (DSS-induced colitis; [5]): 40% | IC50 ([3]; NR8383 cells, ELISA, 45 min pretreatment, 8-hour LPS, read-out: IC50, inhibition of LPS-induced IL-6 release): 0.274 µM | inhibition at 0.5 µM ([3]; at 0.5 μM, NR8383, LPS 1 μg/ml 8 h, read-out: decrease in IL-6 levels / inhibition of LPS induced IL-6 production): ~50%
